Data published in the supplement of paper PMC10307832.

Assays:
Test in all cases: relative viability (nuclei count vs DMSO), 5 days (fraction); higher = more cells survive
Trametinib + Lapatinib = compound: CC(=O)Nc1cccc(-n2c(=O)n(C3CC3)c(=O)c3c(Nc4ccc(I)cc4F)n(C)c(=O)c(C)c32)c1 [Trametinib] + CS(=O)(=O)CCNCc1ccc(-c2ccc3ncnc(Nc4ccc(OCc5cccc(F)c5)c(Cl)c4)c3c2)o1 [Lapatinib] (partner 2 µM)
How it was run: (§1)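 Lung cancer cell lines in 1536-well plates were dosed by pin tool the day after seeding, either with one drug alone or with a fixed anchor-drug dose plus five library-drug doses (not always all listed) in √10 steps. After 5 days, cells were fixed and their nuclei stained in one step (final 0.05% Triton X-100, 1% formaldehyde, 1 ug/ml Hoechst), then counted on 4× images. Relative viability is the nuclei count in treated wells divided by that in vehicle wells. Values are medians of duplicate plates.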

[1] = compound: CN1C=C(C2=CC=CC=C21)/C=C\3/C4=C(C=CC=N4)NC3=O + O=C(c1cc(Cc2n[nH]c(=O)c3ccccc23)ccc1F)N1CCN(C(=O)C2CC2)CC1 [Olaparib] (partner 8 µM)
How it was run: as §1

Trametinib + Olaparib = compound: CC(=O)Nc1cccc(-n2c(=O)n(C3CC3)c(=O)c3c(Nc4ccc(I)cc4F)n(C)c(=O)c(C)c32)c1 [Trametinib] + O=C(c1cc(Cc2n[nH]c(=O)c3ccccc23)ccc1F)N1CCN(C(=O)C2CC2)CC1 [Olaparib] (partner 8 µM)
How it was run: as §1

[2] = compound: CN1C=C(C2=CC=CC=C21)/C=C\3/C4=C(C=CC=N4)NC3=O + COc1cc2c(Oc3ccc(NC(=O)C4(C(=O)Nc5ccc(F)cc5)CC4)cc3F)ccnc2cc1OCCCN1CCOCC1 [Foretinib] (partner 0.25 µM)
How it was run: as §1

NCI-H661
relative viability (Trametinib + Lapatinib; first compound 0.0025 µM): 0.43
relative viability (Trametinib + Lapatinib; first compound 0.007906 µM): 0.451
relative viability (Trametinib + Lapatinib; first compound 0.025 µM): 0.448
relative viability (Trametinib + Lapatinib; first compound 0.07906 µM): 0.341
relative viability (Trametinib + Lapatinib; first compound 0.25 µM): 0.421
relative viability ([1]; first compound 0.02 µM): 0.825
relative viability ([1]; first compound 0.06325 µM): 0.722
relative viability ([1]; first compound 0.2 µM): 0.791
relative viability ([1]; first compound 0.6325 µM): 0.89
relative viability ([1]; first compound 2 µM): 0.822
relative viability (Trametinib + Olaparib; first compound 0.0025 µM): 0.718
relative viability (Trametinib + Olaparib; first compound 0.007906 µM): 0.704
relative viability (Trametinib + Olaparib; first compound 0.025 µM): 0.633
relative viability (Trametinib + Olaparib; first compound 0.07906 µM): 0.637
relative viability (Trametinib + Olaparib; first compound 0.25 µM): 0.564
relative viability ([2]; first compound 0.02 µM): 1.11
relative viability ([2]; first compound 0.06325 µM): 0.965
relative viability ([2]; first compound 0.2 µM): 1.04
relative viability ([2]; first compound 0.6325 µM): 1.05
relative viability ([2]; first compound 2 µM): 1.04

CAL-12T
relative viability (Trametinib + Lapatinib; first compound 0.0025 µM): 0.54
relative viability (Trametinib + Lapatinib; first compound 0.007906 µM): 0.514
relative viability (Trametinib + Lapatinib; first compound 0.025 µM): 0.47
relative viability (Trametinib + Lapatinib; first compound 0.07906 µM): 0.648
relative viability (Trametinib + Lapatinib; first compound 0.25 µM): 0.429
relative viability ([1]; first compound 0.02 µM): 0.729
relative viability ([1]; first compound 0.06325 µM): 0.587
relative viability ([1]; first compound 0.2 µM): 0.617
relative viability ([1]; first compound 0.6325 µM): 0.75
relative viability ([1]; first compound 2 µM): 0.625
relative viability (Trametinib + Olaparib; first compound 0.0025 µM): 0.692
relative viability (Trametinib + Olaparib; first compound 0.007906 µM): 0.555
relative viability (Trametinib + Olaparib; first compound 0.025 µM): 0.522
relative viability (Trametinib + Olaparib; first compound 0.07906 µM): 0.511
relative viability (Trametinib + Olaparib; first compound 0.25 µM): 0.487
relative viability ([2]; first compound 0.02 µM): 1.08
relative viability ([2]; first compound 0.06325 µM): 1.03
relative viability ([2]; first compound 0.2 µM): 1.08
relative viability ([2]; first compound 0.6325 µM): 1.08
relative viability ([2]; first compound 2 µM): 1.03

HARA
relative viability (Trametinib + Lapatinib; first compound 0.0025 µM): 0.585
relative viability (Trametinib + Lapatinib; first compound 0.007906 µM): 0.583
relative viability (Trametinib + Lapatinib; first compound 0.025 µM): 0.541
relative viability (Trametinib + Lapatinib; first compound 0.07906 µM): 0.513
relative viability (Trametinib + Lapatinib; first compound 0.25 µM): 0.509
relative viability ([1]; first compound 0.02 µM): 0.247
relative viability ([1]; first compound 0.06325 µM): 0.747
relative viability ([1]; first compound 0.6325 µM): 0.726
relative viability ([1]; first compound 2 µM): 0.794
relative viability (Trametinib + Olaparib; first compound 0.0025 µM): 0.696
relative viability (Trametinib + Olaparib; first compound 0.007906 µM): 0.832
relative viability (Trametinib + Olaparib; first compound 0.025 µM): 0.664
relative viability (Trametinib + Olaparib; first compound 0.07906 µM): 0.449
relative viability (Trametinib + Olaparib; first compound 0.25 µM): 0.308
relative viability ([2]; first compound 0.02 µM): 0.94
relative viability ([2]; first compound 0.06325 µM): 0.68
relative viability ([2]; first compound 0.6325 µM): 0.818
relative viability ([2]; first compound 2 µM): 0.848

NCI-H596
relative viability (Trametinib + Lapatinib; first compound 0.0025 µM): 0.918
relative viability (Trametinib + Lapatinib; first compound 0.007906 µM): 0.817
relative viability (Trametinib + Lapatinib; first compound 0.025 µM): 0.807
relative viability (Trametinib + Lapatinib; first compound 0.07906 µM): 0.833
relative viability (Trametinib + Lapatinib; first compound 0.25 µM): 0.412
relative viability ([1]; first compound 0.02 µM): 0.545
relative viability ([1]; first compound 0.06325 µM): 0.744
relative viability ([1]; first compound 0.2 µM): 0.648
relative viability ([1]; first compound 0.6325 µM): 0.558
relative viability ([1]; first compound 2 µM): 0.554
relative viability (Trametinib + Olaparib; first compound 0.0025 µM): 0.664
relative viability (Trametinib + Olaparib; first compound 0.007906 µM): 0.594
relative viability (Trametinib + Olaparib; first compound 0.025 µM): 0.589
relative viability (Trametinib + Olaparib; first compound 0.07906 µM): 0.516
relative viability (Trametinib + Olaparib; first compound 0.25 µM): 0.463
relative viability ([2]; first compound 0.02 µM): 0.963
relative viability ([2]; first compound 0.06325 µM): 0.89
relative viability ([2]; first compound 0.2 µM): 0.871
relative viability ([2]; first compound 0.6325 µM): 0.742
relative viability ([2]; first compound 2 µM): 0.855

LU99A
relative viability (Trametinib + Lapatinib; first compound 0.0025 µM): 0.866
relative viability (Trametinib + Lapatinib; first compound 0.007906 µM): 0.911
relative viability (Trametinib + Lapatinib; first compound 0.025 µM): 0.719
relative viability (Trametinib + Lapatinib; first compound 0.07906 µM): 0.674
relative viability (Trametinib + Lapatinib; first compound 0.25 µM): 0.267
relative viability ([1]; first compound 0.02 µM): 0.253
relative viability ([1]; first compound 0.06325 µM): 0.24
relative viability ([1]; first compound 0.2 µM): 0.274
relative viability ([1]; first compound 0.6325 µM): 0.21
relative viability ([1]; first compound 2 µM): 0.278
relative viability (Trametinib + Olaparib; first compound 0.0025 µM): 0.292
relative viability (Trametinib + Olaparib; first compound 0.007906 µM): 0.277
relative viability (Trametinib + Olaparib; first compound 0.025 µM): 0.261
relative viability (Trametinib + Olaparib; first compound 0.07906 µM): 0.263
relative viability (Trametinib + Olaparib; first compound 0.25 µM): 0.247
relative viability ([2]; first compound 0.02 µM): 0.637
relative viability ([2]; first compound 0.06325 µM): 0.699
relative viability ([2]; first compound 0.2 µM): 0.759
relative viability ([2]; first compound 0.6325 µM): 0.845
relative viability ([2]; first compound 2 µM): 0.835

LC-2-ad
relative viability (Trametinib + Lapatinib; first compound 0.0025 µM): 0.917
relative viability (Trametinib + Lapatinib; first compound 0.007906 µM): 0.839
relative viability (Trametinib + Lapatinib; first compound 0.025 µM): 0.664
relative viability (Trametinib + Lapatinib; first compound 0.07906 µM): 0.639
relative viability (Trametinib + Lapatinib; first compound 0.25 µM): 0.285
relative viability ([1]; first compound 0.02 µM): 0.658
relative viability ([1]; first compound 0.06325 µM): 0.705
relative viability ([1]; first compound 0.2 µM): 0.722
relative viability ([1]; first compound 0.6325 µM): 0.72
relative viability ([1]; first compound 2 µM): 0.663
relative viability (Trametinib + Olaparib; first compound 0.0025 µM): 0.683
relative viability (Trametinib + Olaparib; first compound 0.007906 µM): 0.663
relative viability (Trametinib + Olaparib; first compound 0.025 µM): 0.706
relative viability (Trametinib + Olaparib; first compound 0.07906 µM): 0.695
relative viability (Trametinib + Olaparib; first compound 0.25 µM): 0.604
relative viability ([2]; first compound 0.02 µM): 0.901
relative viability ([2]; first compound 0.06325 µM): 0.843
relative viability ([2]; first compound 0.2 µM): 0.864
relative viability ([2]; first compound 0.6325 µM): 1.03
relative viability ([2]; first compound 2 µM): 0.931

NCI-H1650
relative viability (Trametinib + Lapatinib; first compound 0.0025 µM): 0.899
relative viability (Trametinib + Lapatinib; first compound 0.007906 µM): 0.714
relative viability (Trametinib + Lapatinib; first compound 0.025 µM): 0.567
relative viability (Trametinib + Lapatinib; first compound 0.07906 µM): 0.568
relative viability (Trametinib + Lapatinib; first compound 0.25 µM): 0.151
relative viability ([1]; first compound 0.02 µM): 0.843
relative viability ([1]; first compound 0.06325 µM): 0.69
relative viability ([1]; first compound 0.2 µM): 0.718
relative viability ([1]; first compound 0.6325 µM): 0.714
relative viability ([1]; first compound 2 µM): 0.749
relative viability (Trametinib + Olaparib; first compound 0.0025 µM): 0.852
relative viability (Trametinib + Olaparib; first compound 0.007906 µM): 0.735
relative viability (Trametinib + Olaparib; first compound 0.025 µM): 0.638
relative viability (Trametinib + Olaparib; first compound 0.07906 µM): 0.568
relative viability (Trametinib + Olaparib; first compound 0.25 µM): 0.332
relative viability ([2]; first compound 0.02 µM): 1.21
relative viability ([2]; first compound 0.06325 µM): 1.05
relative viability ([2]; first compound 0.2 µM): 0.98
relative viability ([2]; first compound 0.6325 µM): 1.26
relative viability ([2]; first compound 2 µM): 1.22

NCI-H1915
relative viability (Trametinib + Lapatinib; first compound 0.0025 µM): 1.01
relative viability (Trametinib + Lapatinib; first compound 0.007906 µM): 0.929
relative viability (Trametinib + Lapatinib; first compound 0.025 µM): 0.873
relative viability (Trametinib + Lapatinib; first compound 0.07906 µM): 0.538
relative viability (Trametinib + Lapatinib; first compound 0.25 µM): 0.253
relative viability ([1]; first compound 0.02 µM): 0.259
relative viability ([1]; first compound 0.06325 µM): 0.257
relative viability ([1]; first compound 0.2 µM): 0.28
relative viability ([1]; first compound 0.6325 µM): 0.304
relative viability ([1]; first compound 2 µM): 0.257
relative viability (Trametinib + Olaparib; first compound 0.0025 µM): 0.266
relative viability (Trametinib + Olaparib; first compound 0.007906 µM): 0.21
relative viability (Trametinib + Olaparib; first compound 0.025 µM): 0.198
relative viability (Trametinib + Olaparib; first compound 0.07906 µM): 0.168
relative viability (Trametinib + Olaparib; first compound 0.25 µM): 0.144
relative viability ([2]; first compound 0.02 µM): 1.09
relative viability ([2]; first compound 0.06325 µM): 1.15
relative viability ([2]; first compound 0.2 µM): 1.14
relative viability ([2]; first compound 0.6325 µM): 1.18
relative viability ([2]; first compound 2 µM): 1.18
